Experimental data: US20250179103A1, “6-OXODECAHYDROPYRROLO[1,2-A][1,5]DIAZOCINE AND 6-OXODECAHYDRO-4H-PYRROLO[2,1-D][1,5]THIAZOCINE DERIVATIVES AS STAT3 AND STAT6 MODULATORS FOR THE TREATMENT OF CANCER AND INFLAMMATORY CONDITIONS” (Recludix Pharma, Inc., priority 2022, published 2025)

What was measured:
[1] = molecular target: T1, Recombinant STAT3 protein (STAT3(G127-I722)) (Homo sapiens, UniProt P40763); test: STAT3 Fluorescence Polarization (FP) Assay; type: binding; conditions: STAT3(G127-I722) 25 nM, probe 5-FAM-GpYLPQTV-NH2 2 nM, 45-minute incubation
T1 construct: Recombinant STAT3 protein (STAT3(G127-I722))
In short: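 STAT3(G127-I722), 25 nM, was mixed with 2 nM 5-FAM-GpYLPQTV-NH2 probe in HEPES pH 7.4 buffer with 1% DMSO and serially diluted compound. FP (mP) was read after 45 min at room temperature. IC50 came from nonlinear regression.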

[2] = molecular target: T2, Recombinant STAT6 protein (STAT6(W123-T658)) (Homo sapiens, UniProt P42226); test: STAT6 Fluorescence Polarization (FP) Assay; type: binding; conditions: STAT6(W123-T658) 250 nM, probe 5-FAM-ApYKPFQDLI-NH2 2 nM, 45-minute incubation
T2 construct: Recombinant STAT6 protein (STAT6(W123-T658))
T2 sequence (P42226 123-658): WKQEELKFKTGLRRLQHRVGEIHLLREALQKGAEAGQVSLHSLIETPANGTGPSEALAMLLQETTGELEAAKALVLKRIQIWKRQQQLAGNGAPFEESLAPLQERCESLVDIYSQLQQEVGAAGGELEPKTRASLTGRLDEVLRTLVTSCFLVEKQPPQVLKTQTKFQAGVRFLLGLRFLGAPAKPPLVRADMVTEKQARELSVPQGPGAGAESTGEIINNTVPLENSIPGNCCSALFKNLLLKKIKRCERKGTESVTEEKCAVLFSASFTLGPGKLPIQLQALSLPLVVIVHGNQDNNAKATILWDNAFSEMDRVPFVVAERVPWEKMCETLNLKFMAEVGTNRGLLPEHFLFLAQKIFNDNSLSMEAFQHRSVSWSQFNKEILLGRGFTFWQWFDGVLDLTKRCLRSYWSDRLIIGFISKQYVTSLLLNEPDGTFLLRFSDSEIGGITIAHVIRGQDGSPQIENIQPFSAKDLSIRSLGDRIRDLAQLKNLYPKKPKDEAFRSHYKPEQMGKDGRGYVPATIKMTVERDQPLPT
In short: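 Displacement of a fluorescent phosphotyrosine peptide (5-FAM-ApYKPFQDLI-NH2, 2 nM) from STAT6(W123-T658) (250 nM), 1% DMSO, pH 7.4 HEPES buffer. After 45 min at room temperature, polarization (mP) was plotted versus log compound concentration and fitted by nonlinear regression to give IC50.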

T1 sequence (P40763 127-722): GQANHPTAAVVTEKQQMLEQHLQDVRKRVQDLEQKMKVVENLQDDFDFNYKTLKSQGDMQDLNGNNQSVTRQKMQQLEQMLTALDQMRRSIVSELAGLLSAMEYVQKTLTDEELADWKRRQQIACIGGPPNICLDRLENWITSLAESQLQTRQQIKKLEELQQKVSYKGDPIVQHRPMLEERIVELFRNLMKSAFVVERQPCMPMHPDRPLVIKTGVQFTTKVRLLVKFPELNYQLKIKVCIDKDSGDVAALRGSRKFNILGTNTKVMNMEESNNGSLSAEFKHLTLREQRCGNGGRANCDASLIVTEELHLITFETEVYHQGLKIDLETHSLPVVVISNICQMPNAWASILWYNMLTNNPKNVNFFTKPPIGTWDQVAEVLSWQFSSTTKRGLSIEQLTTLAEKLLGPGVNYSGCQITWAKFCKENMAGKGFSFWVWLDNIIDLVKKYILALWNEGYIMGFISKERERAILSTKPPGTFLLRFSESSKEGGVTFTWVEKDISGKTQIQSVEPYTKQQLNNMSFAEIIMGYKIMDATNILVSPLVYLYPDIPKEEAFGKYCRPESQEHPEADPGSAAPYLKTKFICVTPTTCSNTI

Structure (SMILES)	IC50 [1] [nM]	IC50 [2] [nM]
CC(=O)N1CC[C@H]2CC[C@@H](C(=O)Nc3ccc(-c4ccccc4)cc3CC#N)N2C(=O)[C@@H](NC(=O)c2cc3cc(C(F)(F)P(=O)(O)O)ccc3s2)C1 [Compound 176, ((2-(((5S,8S,10aR)-3-acetyl-8-((3-(cyanomethyl)-[1,1′-biphenyl]-4-yl)carbamoyl)-6-oxodecahydropyrrolo[1,2-a][1,5]diazocin-5-yl)carbamoyl)benzo[b]thiophen-5-yl)difluoromethyl)phosphonic acid]	100 to 1000	300 to 3000
O=C(N[C@H]1CNCC[C@H]2CC[C@@H](C(=O)N3CC(C(=O)N4CCOCC4)C3)N2C1=O)c1cc2cc(C(F)(F)P(=O)(O)O)ccc2s1 [Compound 256, (difluoro(2-(((5S,8S,10aR)-8-(3-(morpholine-4-carbonyl)azetidine-1-carbonyl)-6-oxodecahydropyrrolo[1,2-a][1,5]diazocin-5-yl)carbamoyl)benzo[b]thiophen-5-yl)methyl)phosphonic acid]	100 to 1000	3000 to 30000
CC(=O)N1CC[C@H]2CC[C@@H](C(=O)N(C)c3ccccc3)N2C(=O)[C@@H](NC(=O)c2cc3cc(C(CO)P(=O)(O)O)ccc3s2)C1 (stereo partly drawn) [Compound 19, (1-(2-(((5S,8S,10aR)-3-acetyl-8-(methyl(phenyl)carbamoyl)-6-oxodecahydropyrrolo[1,2-a][1,5]diazocin-5-yl)carbamoyl)benzo[b]thiophen-5-yl)-2-hydroxyethyl)phosphonic acid]	> 10000	> 30000
CN(C(=O)[C@@H]1CC[C@@H]2CCN(C(=O)c3ccccc3)C[C@H](NC(=O)c3cc4cc(C(F)(F)P(=O)(O)O)ccc4[nH]3)C(=O)N21)c1ccccc1 [Compound 220, ((2-(((5S,8S,10aR)-3-benzoyl-8-(methyl(phenyl)carbamoyl)-6-oxodecahydropyrrolo[1,2-a][1,5]diazocin-5-yl)carbamoyl)-1H-indol-5-yl)difluoromethyl)phosphonic acid]	> 10000	300 to 3000
O=C(N[C@H]1CN(Cc2ccccc2-n2cncn2)CC[C@H]2CC[C@@H](C(=O)N3CC(c4cccnc4)C3)N2C1=O)c1cc2cc(C(F)(F)P(=O)(O)O)ccc2s1 [Compound 402, ((2-(((5S,8S,10aR)-3-(2-(1H-1,2,4-triazol-1-yl)benzyl)-6-oxo-8-(3-(pyridin-3-yl)azetidine-1-carbonyl)decahydro-pyrrolo[1,2-a][1,5]diazocin-5-yl)carbamoyl)benzo[b]thiophen-5-yl)difluoromethyl) phosphonic acid]	≤ 100	3000 to 30000
N#C[C@H]1CN(C(=O)[C@@H]2CC[C@@H]3CN(C(c4ccccc4)c4ccccc4)CC[C@H](NC(=O)c4ccc5ccc(C(F)(F)P(=O)(O)O)cc5c4)C(=O)N32)C[C@@H]1c1ccccc1 (relative stereo) [Compound 209, ((7-(((5S,8S,10aR)-2-benzhydryl-8-((rel-trans)-3-cyano-4-phenylpyrrolidine-1-carbonyl)-6-oxodecahydropyrrolo[1,2-a][1,4]diazocin-5-yl)carbamoyl)naphthalen-2-yl)difluoromethyl)phosphonic acid]	1000 to 10000	300 to 3000
CCCS(=O)(=O)N1CC[C@H]2CC[C@@H](C(=O)N3CCOCC3)N2C(=O)[C@@H](NC(=O)c2ccc3ccc(C(F)P(=O)(O)O)cc3c2)C1 (stereo partly drawn) [Compound 361, (fluoro(7-(((5S,8S,10aR)-8-(morpholine-4-carbonyl)-6-oxo-3-(propylsulfonyl)decahydropyrrolo[1,2-a] [1,5]diazocin-5-yl)carbamoyl)naphthalen-2-yl)methyl)phosphonic acid]	> 10000	3000 to 30000
N#C[C@H]1CN(C(=O)[C@@H]2CC[C@@H]3CN(C4CCC4)CC[C@H](NC(=O)c4ccc5ccc(C(F)(F)P(=O)(O)O)cc5c4)C(=O)N32)C[C@@H]1c1ccccc1 (relative stereo) [Compound 228, ((7-(((5S,8S,10aR)-8-((rel-trans)-3-cyano-4-phenylpyrrolidine-1-carbonyl)-2-cyclobutyl-6-oxodecahydropyrrolo[1,2-a][1,4]diazocin-5-yl)carbamoyl)naphthalen-2-yl)difluoromethyl)phosphonic acid]	1000 to 10000	≤ 300
N#C[C@@H]1CN(C(=O)[C@@H]2CC[C@@H]3CCN(CC(F)F)C[C@H](NC(=O)c4cc5cc(C(F)P(=O)(O)O)ccc5s4)C(=O)N32)C[C@H]1c1ccccc1 (stereo partly drawn) [Compound 395, ((2-(((5S,8S,10aR)-8-((3S,4R)-3-cyano-4-phenyl-pyrrolidine-1-carbonyl)-3-(2,2-difluoroethyl)-6-oxodecahydropyrrolo [1,2-a][1,5]diazocin-5-yl)carbamoyl)benzo[b]thiophen-5-yl)fluoromethyl) phosphonic acid]	1000 to 10000	≤ 300
Cc1ccc2onc(C(=O)N3CC[C@H]4CC[C@@H](C(=O)N5CCOCC5)N4C(=O)[C@@H](NC(=O)c4ccc5c(C#N)cc(CP(=O)(O)O)cc5c4)C3)c2c1 [Compound 384, ((4-cyano-7-(((5S,8S, 10aR)-3-(5-methylbenzo[d]isoxazole-3-carbonyl)-8-(morpholine-4-carbonyl)-6-oxodecahydropyrrolo [1,2-a][1,5]diazocin-5-yl)carbamoyl)naphthalen-2-yl)methyl) phosphonic acid]	> 10000	300 to 3000
CC(=O)N1CC[C@H]2CC[C@@H](C(=O)N3C[C@@H](C#N)[C@H](c4ccccc4)C3)N2C(=O)[C@@H](NC(=O)c2cc3cc(C(F)(F)P(=O)(O)O)ccc3[nH]2)C1 (single isomer, unassigned) [Compound 139, ((2-(((5S,8S,10aR)-3-acetyl-8-((3S,4R or 3R,4S)-3-cyano-4-phenylpyrrolidine-1-carbonyl)-6-oxodecahydropyrrolo[1,2-a][1,5]diazocin-5-yl)carbamoyl)-1H-indol-5-yl)difluoromethyl)phosphonic acid]	1000 to 10000	≤ 300
COc1cccc([C@@H]2CN(C(=O)[C@@H]3CC[C@@H]4CCN(C(C)=O)C[C@H](NC(=O)c5cc6cc(C(F)(F)P(=O)(O)O)ccc6s5)C(=O)N43)C[C@H]2C#N)c1 (relative stereo) [Compound 149, ((2-(((5S,8S,10aR)-3-acetyl-8-((rel-trans)-3-cyano-4-(3-methoxyphenyl)pyrrolidine-1-carbonyl)-6-oxodecahydropyrrolo[1,2-a][1,5]diazocin-5-yl)carbamoyl)benzo[b]thiophen-5-yl)difluoromethyl)phosphonic acid]	1000 to 10000	≤ 300
CC(=O)N1CC[C@H]2CC[C@@H](C(=O)N3C[C@@H]4[C@H](C3)[C@H]3CS(=O)(=O)C[C@@H]43)N2C(=O)[C@@H](NC(=O)c2cc3cc(C(F)(F)P(=O)(O)O)ccc3s2)C1 [Compound 79, ((2-(((5S,8S,10aR)-3-acetyl-8-((3aR,3bS,6aR,6bS)-2,2-dioxidooctahydro-1H-thieno[3′,4′:3,4]cyclobuta[1,2-c]pyrrole-5-carbonyl)-6-oxodecahydropyrrolo[1,2-a][1,5]diazocin-5-yl)carbamoyl)benzo[b]thiophen-5-yl)difluoromethyl)phosphonic acid]	100 to 1000	300 to 3000
CC(=O)N1CC[C@H]2CC[C@@H](C(=O)N(C)C)N2C(=O)[C@@H](NC(=O)c2cc3cc(C(F)(F)P(=O)(O)O)ccc3[nH]2)C1 [Compound 29, ((2-(((5S,8S,10aR)-3-acetyl-8-(dimethylcarbamoyl)-6-oxodecahydropyrrolo[1,2-a][1,5]diazocin-5-yl)carbamoyl)-1H-indole-5-yl)difluoromethyl)phosphonic acid]	1000 to 10000	300 to 3000
